Columns and labels:
[1] = target: T1, BaF3 TELJAK2 cells (BafT_J2) (Homo sapiens, UniProt O60674); test: Cellular screening, BaF3 TEL:JAK2 cells, Alamar Blue; type: cell-based; settings: 40 hr, read-out: BafT_J2 IC50_nM
T1 construct: fused on or other part: TEL (ETV6) N-terminal part, coding nucleotides 1-487, serves as the oligomerising partner; It is fused through a Sal I site to the JAK2 kinase domain and expressed from pTRE2 in BaF3 cells bearing pTET-off; P41212 (Transcription factor ETV6)
Summary of the method: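 Tet-off BaF3 cells carrying a TEL (nt 1-487)–JAK2 kinase-domain fusion, grown factor-independently in DMEM with 10% Tet-approved FBS without WEHI 3B medium. Compounds were diluted to 20 μM in screening plates, and cells (50,000–200,000 cell/mL at 1.1×) were incubated 40 hr at 37 °C, 5% CO2. Alamar Blue was then added for 4-6 hours; read at 544 nm.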

[2] = tested on: CTLL2; test: Cellular screening, CTLL2 cells, Alamar Blue; type: cell-based; settings: Mus musculus, CTLL-2, read-out: CTLL2 IC50_nM
Summary of the method: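 CTLL2 cells in late log phase incubated with compound for 40 hr at 37° C, 5% CO2. Viability then read at 544 nm after a further 4-6 hours with Alamar Blue.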

[3] = target: T2, human JAK3 (Homo sapiens, UniProt P52333); test: Alphascreen tyrosine kinase enzyme assay, JAK3 kinase domain; type: biochemical; settings: read-out: JAK3 IC50_nM
T2 construct: The kinase domain of human JAK3 was amplified; GST (N); made in house; host or cells: Sf9 insect cells (baculovirus)
Summary of the method: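 GST-affinity-purified human JAK3 kinase domain (baculovirus/Sf9) was pre-incubated 20 min with compound ([…]) in HEPES pH 7.5 buffer with MgCl2, vanadate and Tween 20. Biotinylated peptide substrate ([…]) and ATP were then added; phosphotyrosine was detected by AlphaScreen PY100 acceptor and streptavidin donor beads after 2–3 h.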

[4] = tested on: BaF3 wild-type cells; test: Cellular screening, BaF3 wild-type cells, Alamar Blue; type: cell-based; settings: Mus musculus, 40 hr, read-out: BAF3wt IC50_nM
Summary of the method: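 Cells were cultured in DMEM with 10% FCS and 10% WEHI 3B conditioned medium, and suspensions were prepared at 1.1× final (50,000–200,000 cells/mL). Compounds from 20 μM dilution plates were added at 10× final and incubated for 40 hr at 37° C, 5% CO2. Alamar Blue was then added for 4–6 hours and read at 544 nm.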

[5] = target: T3, human JAK2 (Homo sapiens, UniProt O60674); test: Alphascreen tyrosine kinase enzyme assay, JAK2 kinase domain; type: biochemical; settings: read-out: JAK2 IC50_nM
T3 construct: The kinase domain of human JAK2 was amplified; GST (N); made in house; host or cells: Sf9 insect cells (baculovirus)
Summary of the method: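 JAK2 kinase domain expressed in baculovirus/Sf9 and glutathione-affinity purified. Compounds (final […]) pre-incubated 20 min with enzyme in 10 mM HEPES pH 7.5, MgCl2, NaCl, vanadate, 0.1% Tween 20.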

T3 sequence (O60674 849-1124 limits assumed): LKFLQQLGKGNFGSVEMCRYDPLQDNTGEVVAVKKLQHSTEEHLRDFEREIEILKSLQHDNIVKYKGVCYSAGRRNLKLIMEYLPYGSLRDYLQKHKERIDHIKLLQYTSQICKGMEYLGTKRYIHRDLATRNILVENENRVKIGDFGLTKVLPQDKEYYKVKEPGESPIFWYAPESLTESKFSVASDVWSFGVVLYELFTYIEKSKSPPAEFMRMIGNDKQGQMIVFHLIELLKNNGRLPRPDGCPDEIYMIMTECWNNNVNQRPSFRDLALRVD
T1 sequence (O60674 whole entry, change not shown, the tested form may be a part): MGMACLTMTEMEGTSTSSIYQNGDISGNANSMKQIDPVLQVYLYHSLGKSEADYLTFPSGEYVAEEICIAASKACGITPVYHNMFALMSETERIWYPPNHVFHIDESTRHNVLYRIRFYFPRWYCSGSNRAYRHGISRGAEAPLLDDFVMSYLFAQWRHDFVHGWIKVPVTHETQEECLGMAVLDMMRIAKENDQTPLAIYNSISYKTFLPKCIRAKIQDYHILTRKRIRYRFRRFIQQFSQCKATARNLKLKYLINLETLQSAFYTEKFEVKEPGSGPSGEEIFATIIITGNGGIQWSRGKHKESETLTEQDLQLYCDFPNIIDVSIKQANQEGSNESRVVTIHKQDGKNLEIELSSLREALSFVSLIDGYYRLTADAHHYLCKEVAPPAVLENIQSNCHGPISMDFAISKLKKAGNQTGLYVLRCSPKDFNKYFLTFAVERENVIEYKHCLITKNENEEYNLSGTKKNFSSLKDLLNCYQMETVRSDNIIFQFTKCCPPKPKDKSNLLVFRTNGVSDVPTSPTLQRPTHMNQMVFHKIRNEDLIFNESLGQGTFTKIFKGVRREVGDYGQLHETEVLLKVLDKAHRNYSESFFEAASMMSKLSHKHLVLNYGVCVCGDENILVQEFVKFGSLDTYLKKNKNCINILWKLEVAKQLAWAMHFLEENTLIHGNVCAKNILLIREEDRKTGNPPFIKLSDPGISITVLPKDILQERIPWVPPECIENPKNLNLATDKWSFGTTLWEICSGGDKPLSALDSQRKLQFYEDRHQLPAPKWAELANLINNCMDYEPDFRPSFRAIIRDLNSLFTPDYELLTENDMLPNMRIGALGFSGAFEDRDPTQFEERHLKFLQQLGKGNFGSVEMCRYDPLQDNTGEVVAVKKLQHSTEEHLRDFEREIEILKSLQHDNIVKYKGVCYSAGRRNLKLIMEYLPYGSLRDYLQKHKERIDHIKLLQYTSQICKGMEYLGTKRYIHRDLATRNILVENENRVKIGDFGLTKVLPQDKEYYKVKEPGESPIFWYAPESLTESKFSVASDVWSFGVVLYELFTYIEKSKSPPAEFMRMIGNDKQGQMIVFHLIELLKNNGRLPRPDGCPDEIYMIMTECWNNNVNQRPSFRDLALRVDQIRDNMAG
T2 sequence (P52333 822-1111 limits assumed): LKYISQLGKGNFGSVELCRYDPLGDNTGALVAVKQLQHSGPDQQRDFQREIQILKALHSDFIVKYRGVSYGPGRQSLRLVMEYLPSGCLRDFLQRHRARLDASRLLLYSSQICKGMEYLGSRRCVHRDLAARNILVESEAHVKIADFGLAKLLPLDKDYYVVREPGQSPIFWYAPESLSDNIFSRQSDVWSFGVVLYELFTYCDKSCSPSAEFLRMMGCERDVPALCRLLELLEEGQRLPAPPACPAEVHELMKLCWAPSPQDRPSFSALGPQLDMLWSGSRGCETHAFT

SMILES | GI50 [1] [µM] | IC50 [2] [µM] | IC50 [3] [µM] | IC50 [4] [µM] | IC50 [5] [µM]
C=CC(=O)Nc1ccc(Sc2ccnc(Nc3ccc(C#N)cc3)n2)cc1 [Compound 131, N-(4-(2-(4-cyanophenylao)pyrimidin-4-ylthio)phenyl)acrylamide] | < 20 | < 20 | < 0.1 | < 5 | > 1
C=CC(=O)Nc1ccc(Sc2nc(Nc3ccc(N4CCOCC4)cc3)ncc2-c2ccccc2)cc1 [Compound 307, N-(4-(2-(4-morpholinophenylao)-5-phenylpyrimidin-4-ylthio)phenyl)acrylamide] | > 20 | > 20 | < 0.1 | > 20 | > 1
C=CC(=O)Nc1ccc(Sc2ccnc(Nc3cccc(C(=O)OC)c3)n2)cc1 [Compound 356, methyl 3-(4-(4-acrylamidophenylthio)pyrimidin-2-ylao)benzoate] | < 20 | < 5 | < 0.1 | < 20 | > 1
C=CC(=O)Nc1cccc(Sc2ccnc(Nc3ccc(OC)cc3)n2)c1 [Compound 120, N-(3-(2-(4-methoxyphenylao)pyrimidin-4-ylthio)phenyl)acrylamide] | < 20 | < 5 | < 0.1 | > 20 | > 1
Cc1cnc(Nc2ccc(N3CCOCC3)cc2)nc1Sc1ccc(N)cc1 [Compound 126, 4-(4-aophenylthio)-5-methyl-N-(4-morpholinophenyl)pyrimidin-2-ae] | < 5 | < 5 | < 0.1 | > 20 | < 0.5
C=CC(=O)Nc1cccc(Nc2nccc(Sc3cccc(OC)c3)n2)c1 [Compound 31, N-(3-(4-(3-methoxyphenylthio)pyrimidin-2-ylao)phenyl)acrylamide] | < 20 | < 1 | < 0.1 | < 20 | > 1
CSc1nc(Nc2ccc(N3CCOCC3)cc2)ncc1C [Compound 176, 5-methyl-4-(methylthio)-N-(4-morpholinophenyl)pyrimidin-2-ae] | < 5 | < 5 | < 1 | < 5 | < 1
C=CC(=O)Nc1ccc(Sc2ccnc(Nc3cccc(S(=O)(=O)N4CCOCC4)c3)n2)cc1 [Compound 372, N-(4-(2-(3-(morpholinosulfonyl)phenylao)pyrimidin-4-ylthio)phenyl)acrylamide] | < 5 | < 5 | < 0.1 | < 5 | > 1
C=CC(=O)Nc1ccc(Sc2nc(Nc3ccccc3O)ncc2C)cc1 [Compound 287, N-(4-(2-(2-hydroxyphenylao)-5-methylpyrimidin-4-ylthio)phenyl)acrylamide] | > 20 | – | < 0.1 | – | > 1
C=CC(=O)Nc1ccc(Sc2ccnc(Nc3ccc(S(=O)(=O)N4CCOCC4)c(OC)c3)n2)cc1 [Compound 373, N-(4-(2-(3-methoxy-4-(morpholinosulfonyl)phenylao)pyrimidin-4-ylthio)phenyl)acrylamide] | < 5 | < 5 | < 0.1 | < 5 | > 1
CC#CC(=O)Nc1ccc(Sc2nc(Nc3ccc(N4CCOCC4)cc3)ncc2C)cc1 [Compound 125, N-(4-(5-methyl-2-(4-morpholinophenylao)pyrimidin-4-ylthio)phenyl)but-2-ynamide] | < 20 | < 5 | < 0.1 | > 20 | > 1
N#CCC(=O)Nc1ccc(Sc2ccnc(Nc3ccc(N4CCC(N5CCCC5)CC4)cc3)n2)cc1 [Compound 88, 2-cyano-N-(4-(2-(4-(4-(pyrrolidin-1-yl)piperidin-1-yl)phenylao)pyrimidin-4-ylthio)phenyl)acetamide] | < 5 | < 20 | < 0.5 | < 5 | > 1
C=CC(=O)Nc1ccc(Sc2ccnc(Nc3ccc(N4CCS(=O)(=O)CC4)cc3)n2)cc1 [Compound 99, N-{4-[(2-{[4-(1,1-dioxo-1λ^6,4-thiomorpholin-4-yl)phenyl]ao}pyrimidin-4-yl)sulfanyl]phenyl}prop-2-enamide] | > 20 | – | < 0.1 | – | > 1
Cc1cnc(Nc2ccc(N3CCOCC3)cc2)nc1Sc1ccc(N2C(=O)CCC2=O)cc1 [Compound 384, 1-(4-(5-methyl-2-(4-morpholinophenylao)pyrimidin-4-ylthio)phenyl)pyrrolidine-2,5-dione] | > 20 | > 20 | < 0.1 | > 20 | < 0.5
CC(=O)Nc1ccc(Sc2nc(Nc3ccc(N4CCOCC4)cc3)ncc2C)cc1 [Compound 135, N-(4-(5-methyl-2-(4-morpholinophenylao)pyrimidin-4-ylthio)phenyl)acetamide] | < 20 | – | < 0.5 | – | > 1
C=CC(=O)Nc1ccc(Sc2ccnc(Nc3ccc(S(=O)(=O)NCc4ccccc4)cc3)n2)cc1 [Compound 368, N-(4-(2-(4-(N-benzylsulfamoyl)phenylao)pyrimidin-4-ylthio)phenyl)acrylamide] | < 20 | < 5 | < 0.1 | < 20 | > 1
C=CC(=O)Nc1ccc(Sc2ccnc(Nc3ccccc3O)n2)cc1 [Compound 279, N-(4-(2-(2-hydroxyphenylao)pyrimidin-4-ylthio)phenyl)acrylamide] | < 20 | < 20 | < 0.1 | < 20 | > 1
Cc1cnc(Nc2ccc(N3CCOCC3)cc2)nc1Sc1ccc(C#N)cc1 [Compound 136, 4-(5-methyl-2-(4-morpholinophenylao)pyrimidin-4-ylthio)benzonitrile] | > 20 | > 20 | < 0.5 | > 20 | > 1
C=CC(=O)Nc1ccc(Sc2ccnc(Nc3ccccc3)n2)cc1 [Compound 350, N-(4-(2-(phenylao)pyrimidin-4-ylthio)phenyl)acrylamide] | < 20 | < 20 | < 0.1 | > 20 | > 1
C=CC(=O)Nc1ccc(Sc2nc(Nc3ccc(N4CCS(=O)(=O)CC4)cc3)ncc2C)cc1 [Compound 298, N-{4-[(2-{[4-(1,1-dioxo-1λ^6,4-thiomorpholin-4-yl)phenyl]ao}-5-methylpyrimidin-4-yl)sulfanyl]phenyl}prop-2-enamide] | < 20 | < 1 | < 0.1 | < 20 | > 1
CCC(=O)Nc1ccc(Sc2nc(Nc3ccc(N4CCOCC4)cc3)ncc2Cl)cc1 [Compound 347, N-(4-(5-chloro-2-(4-morpholinophenylao)pyrimidin-4-ylthio)phenyl)propionamide] | > 20 | < 5 | < 0.1 | > 20 | > 1
C=CC(=O)Nc1ccc(Sc2ccnc(Nc3ccc(OC)cc3)n2)cc1 [Compound 74, N-(4-(2-(4-methoxyphenylao)pyrimidin-4-ylthio)phenyl)acrylamide] | > 20 | < 5 | < 0.1 | > 20 | > 1
COc1ccc(Nc2nccc(Sc3ccc(NC(=O)CC#N)cc3)n2)cc1OC [Compound 101, 2-cyano-N-(4-(2-(3,4-dimethoxyphenylao)pyrimidin-4-ylthio)phenyl)acetamide] | < 5 | < 20 | > 1 | < 1 | > 1
COc1cc(Nc2nccc(Sc3ccc(NCC#N)cc3)n2)cc(OC)c1OC [Compound 52, 2-(4-(2-(3,4,5-trimethoxyphenylao)pyrimidin-4-ylthio)phenylao)acetonitrile] | < 5 | – | – | – | > 1
C=CC(=O)Nc1ccc(Sc2ccnc(Nc3ccc(C(=O)OC)cc3)n2)cc1 [Compound 357, methyl 4-(4-(4-acrylamidophenylthio)pyrimidin-2-ylao)benzoate] | < 5 | – | < 0.1 | – | > 1
C=CC(=O)Nc1ccc(Sc2ccnc(Nc3cccc(Cl)c3)n2)cc1 [Compound 348, N-(4-(2-(3-chlorophenylao)pyrimidin-4-ylthio)phenyl)acrylamide] | < 5 | – | < 0.1 | – | > 1

— patent publication US8846704B2, “Thiopyrimidine-based compounds and uses thereof” (YM Biosciences Austraila Pty Ltd, priority 2007, dated 2014)
